For one assay, the system named is rat. Conditions: arteriovenous shunt and venous stasis models; cited from earlier work.
Another assay addresses T1, human factor Xa (Homo sapiens, UniProt P00742).
T1 construct: purchased Enzyme Research Laboratories
The experiment in a line: Determination of Factor Xa IC50 (cleavage of fluorogenic substrate F-S2765). The format is biochemical. On the procedure: The ability of compounds to act as inhibitors of human factor Xa catalytic activity was assessed by determination of that concentration of test substance that inhibited by 50% (IC50) the ability of human factor Xa to cleave the fluorogenic substrate F-S2765 (N-α-Z-D-Arg-Gly-Arg-pNA HCl, California Peptide Research). […] The IC50 was determined at 3 pM and/or 30 pM concentrations of human factor Xa (Enzyme Research Laboratories). These concentrations were achieved by diluting a stock solution of human factor Xa in the appropriate amount of buffer containing 10 mM HEPES, 150 mM NaCl, and 0.1% BSA at pH 7.4 (HBSA buffer). Accordingly, 73 μL of the factor Xa/buffer solution was added to 2.5 μL of DMSO-reconstituted compound and incubated for 55 minutes at room temperature. After warming to 37° C. for am additional 5 minutes, 50 μL of rewarmed substrate was added and the IC50 determined by monitoring the increase in absorbance at 390 nm excitation/460 nm emission (455 nm cutoff) in a fluorometric plate reader or 30 minutes.

In a further assay the test system is human plasma. The experiment in a line: Determination of Prothrombin Time (PT). The assay is classed as biochemical. To be noted: concentration required to increase the clotting time by 2-fold, human tissue thromboplastin. On the procedure:
The prothrombin time (PT) is a measure of extrinsic and common pathway factors. In this assays, human tissue thromboplastin is added to human plasma which activates pathway factors, including factor X activation to factor Xa, leading to clot formation. Significant inhibition of factor Xa, by a small molecule inhibitor, will reduce the conversion of prothrombin to thrombin and thereby increase the time to clot formation in this assay. The value 2 X PT is the concentration of the inhibitor required to increase the clotting time by 2-fold.

The subject of the next assay is rabbit. Conditions: rabbit model of venous thrombosis; cited from earlier work.
The subject of the next assay is dog. To be noted: adjunct to recombinant tissue plasminogen activator; cited from earlier work.
The next assay has as its system canine coronary artery. To be noted: canine coronary artery electrolytic lesion model; cited from earlier work.
The conditions of assay [1]: models of arterial and venous thrombosis; cited from earlier work.
The mark [2] stands for this setting: 30 pM human factor Xa, read-out: FxXa 30 pM IC50.

Like-named read-outs stand apart in the source and are kept apart here.

T1 sequence (P00742 235-488 limits assumed): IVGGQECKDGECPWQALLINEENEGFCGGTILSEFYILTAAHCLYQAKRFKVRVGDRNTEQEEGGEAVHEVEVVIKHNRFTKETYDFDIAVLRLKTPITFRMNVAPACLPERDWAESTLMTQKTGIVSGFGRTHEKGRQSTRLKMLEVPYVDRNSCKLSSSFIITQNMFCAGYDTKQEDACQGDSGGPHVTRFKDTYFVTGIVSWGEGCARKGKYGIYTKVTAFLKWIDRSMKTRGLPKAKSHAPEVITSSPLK
T1 sequence (P00742 41-179 partner limits assumed): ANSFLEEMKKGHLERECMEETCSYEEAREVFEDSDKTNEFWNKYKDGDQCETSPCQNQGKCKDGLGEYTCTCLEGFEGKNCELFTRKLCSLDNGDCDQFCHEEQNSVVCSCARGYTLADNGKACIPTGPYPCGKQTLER

Consider `CC(=N)N1CC[C@H](Oc2ccc([C@H](Cc3ccc4ccc(C(=N)N)cc4c3)C(=O)O)cc2)C1` [DX9065a], for which the “inhibition of thrombus formation” value with rat is “inhibition of thrombus formation was achieved at doses that had little effect on APTT”.
For `CS(=O)(=O)c1ccccc1-c1ccc(NC(=O)C2(NC(=O)Nc3ccc(Cl)cc3)CCCC2)cc1` [Example 1, 1-[3-(4-Chloro-phenyl)-ureido]-cyclopentanecarboxylic acid (2′-methanesulfonyl-biphenyl-4-yl)-amide], the concentration for half-maximal inhibition (IC50) (as a rule, the concentration needed to halve the response being measured) at human factor Xa (3 pM human factor Xa, read-out: FXa 3 pM IC50) is 38 nM. For the same molecule, in the assay with human plasma, the “PT Conc. 2X Prolong.” value came to 13.45 µM.
For `COc1ccc(CN(CC(=O)Nc2ccc(-c3ccccc3S(C)(=O)=O)cc2F)C(=O)Nc2ccc(Cl)cc2)cc1` [Example 28, 2-[3-(4-Chloro-phenyl)-1-(4-methoxy-benzyl)ureido]-N-(3-fluoro-2′-methanesulfonyl-biphenyl-4-yl)-acetamide], on human factor Xa (setting [2]), the half-inhibitory concentration (IC50) is 80 nM.
On the same count and under the same terms, for `COCCN(CC(=O)Nc1ccc(N2CCCCC2=O)cc1F)C(=O)Nc1ccc(Cl)cc1` [Example 29, 2-[3-(4-Chloro-phenyl)-1-(2-methoxy-ethyl)-ureido]-N-[2-fluoro-4-(2-oxo-piperidin-1-yl)-phenyl]-acetamide] the value was 224 nM.
With “rTAP: recombinant tick anticoagulant peptide, a protein or polypeptide factor Xa inhibitor (YNRLCIKPRDWIDECDSNEGGERAYFRNGKGGCDSFWICPEDHTGADYYSSYRDCFNACI; UniProt P17726 1-60, looked up)”, in the assay with rabbit, the fibrin deposition entry was “reduce fibrin deposition”. Besides, in the assay with dog, the “clot lysis and reocclusion” value is “accelerate the recombinant tissue plasminogen activator mediated clot lysis and prevent acute reocclusion”. Further, the “thrombus mass and time to occlusion” value in the assay with canine coronary artery was “reduce thrombus mass and time to occlusion”.

B1: Antistasin: a potent inhibitor of blood coagulation factor Xa from the Mexican leech, Haementeria officinalis (protein, UniProt P15358 18-136, looked up)
Antistasin: QGPFGPGCEEAGCPEGSACNIITDRCTCSGVRCRMHCPHGFQRSRYGCEFCKCRLEPMKATCDISECPEGMMCSRLTNKCDCKIDINCRKTCPNGLKRDKLGCEYCECRPKRKLIPRLS
For the molecule B1, the antithrombotic activity entry in assay [1] was “displays antithrombotic activity”.

These data come from patent US20040167131A1, “Inhibitors of factor Xa and other serine proteases involved in the coagulation cascade” (Pfizer Inc., priority 2002, published 2004).
